Experimental data from US10266526B2, “Substituted 1,2,3-triazoles as SMYD inhibitors for treating cancer” (EPIZYME, INC., priority 2014, dated 2019).

What follows are compounds tested against SMYD3 (Homo sapiens (Human), UniProt Q9H7B4) (assay: SMYD3 biochemical assay (SMYD3 enzyme assay on MEKK2 protein substrate, 3H-SAM scintillation proximity assay)). Conditions: read-out: SMYD3 Biochem IC50.
Summary of the method: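 Detection used scintillation proximity beads to capture ³H-methylated GST-MEKK2 after quench with 100 uM final cold SAM. The reaction was started by SAM/MEKK2 addition after a 30 min RT compound–enzyme preincubation. Enzyme was tag-free full-length human SMYD3 from E. coli, in buffer of 25 mM Tris-Cl pH 8.0, 1 mM TCEP, 0.005% BSG, 0.005% Tween 20.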

SMYD3, sequence (Q9H7B4 whole entry): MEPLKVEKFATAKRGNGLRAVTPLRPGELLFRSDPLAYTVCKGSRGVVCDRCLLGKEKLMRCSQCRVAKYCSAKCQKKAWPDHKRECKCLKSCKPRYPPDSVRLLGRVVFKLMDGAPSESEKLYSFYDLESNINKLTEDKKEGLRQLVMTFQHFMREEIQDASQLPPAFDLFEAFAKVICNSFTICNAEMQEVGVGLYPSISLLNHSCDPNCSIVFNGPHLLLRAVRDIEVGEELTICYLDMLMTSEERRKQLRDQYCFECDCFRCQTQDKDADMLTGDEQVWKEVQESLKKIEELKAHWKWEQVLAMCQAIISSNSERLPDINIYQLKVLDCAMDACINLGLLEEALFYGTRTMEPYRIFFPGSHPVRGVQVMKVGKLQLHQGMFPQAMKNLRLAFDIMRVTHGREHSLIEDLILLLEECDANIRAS

Structure (SMILES)	IC50
Cn1nc(C(C)(C)C)cc1C(=O)N[C@H]1CC[C@H](NC(=O)CCN)CC1 [compound 351, N-((1r,4r)-4-(3-aminopropanamido)cyclohexyl)-3-(tert-butyl)-1-methyl-1H-pyrazole-5-carboxamide]	> 100 µM
Cn1nc(C(C)(C)C)cc1C(=O)N[C@H]1CC[C@H](N)CC1 [compound 352, N-((1r,4r)-4-aminocyclohexyl)-3-(tert-butyl)-1-methyl-1H-pyrazole-5-carboxamide]	> 100 µM
COc1cccc(C(=O)N[C@H]2CC[C@H](NC(=O)CCN)CC2)n1 [compound 353, N-((1r,4r)-4-(3-aminopropanamido)cyclohexyl)-6-methoxypicolinamide]	> 100 µM
COc1cccc(C(=O)N[C@H]2CC[C@H](N)CC2)n1 [compound 354, N-((1r,4r)-4-aminocyclohexyl)-6-methoxypicolinamide]	> 100 µM
COc1cncc(C(=O)N[C@H]2CC[C@H](NC(=O)CCN)CC2)n1 [compound 355, N-((1r,4r)-4-(3-aminopropanamido)cyclohexyl)-6-methoxypyrazine-2-carboxamide]	> 100 µM
COc1cncc(C(=O)N[C@H]2CC[C@H](N)CC2)n1 [compound 356, N-((1r,4r)-4-aminocyclohexyl)-6-methoxypyrazine-2-carboxamide]	> 100 µM
CC(NC(=O)c1ccc(N)cn1)C1CCN(C(=O)[C@H](C)N)CC1 (stereo partly drawn) [compound 357, N-(1-(1-(L-alanyl)piperidin-4-yl)ethyl)-5-aminopicolinamide]	> 100 µM
N[C@H]1CC[C@H](NC(=O)c2ccc(Cl)cc2C(F)(F)F)CC1 [compound 358, N-((1r,4r)-4-aminocyclohexyl)-4-chloro-2-(trifluoromethyl)benzamide]	> 100 µM
N[C@H]1CC[C@H](NC(=O)c2cncs2)CC1 [compound 359, N-((1r,4r)-4-aminocyclohexyl)thiazole-5-carboxamide]	> 100 µM
N[C@H]1CC[C@H](NC(=O)c2c[nH]c3ccccc23)CC1 [compound 360, N-((1r,4r)-4-aminocyclohexyl)-1H-indole-3-carboxamide]	> 100 µM
NCCC(=O)N[C@H]1CC[C@H](NC(=O)c2ccc(O)cn2)CC1 [compound 361, N-((1r,4r)-4-(3-aminopropanamido)cyclohexyl)-5-hydroxypicolinamide]	> 100 µM
N[C@H]1CC[C@H](NC(=O)Cc2cc(F)cc(F)c2)CC1 [compound 362, N-((1r,4r)-4-aminocyclohexyl)-2-(3,5-difluorophenyl)acetamide]	> 100 µM
NCCC(=O)N[C@H]1CC[C@H](NC(=O)Cc2cccnc2)CC1 [compound 363, 3-amino-N-((1r,4r)-4-(2-(pyridin-3-yl)acetamido)cyclohexyl)propanamide]	> 100 µM
NCCC(=O)N[C@H]1CC[C@H](NC(=O)Cc2cncnc2)CC1 [compound 364, 3-amino-N-((1r,4r)-4-(2-(pyrimidin-5-yl)acetamido)cyclohexyl)propanamide]	> 100 µM
N[C@H]1CC[C@H](NC(=O)Cc2cncnc2)CC1 [compound 365, N-((1r,4r)-4-aminocyclohexyl)-2-(pyrimidin-5-yl)acetamide]	> 100 µM
NCCC(=O)N[C@H]1CC[C@H](NC(=O)Cn2ccnc2)CC1 [compound 366, N-((1r,4r)-4-(2-(1H-imidazol-1-yl)acetamido)cyclohexyl)-3-aminopropanamide]	> 100 µM
N[C@H]1CC[C@H](NC(=O)c2nc3ccccc3s2)CC1 [compound 367, N-((1r,4r)-4-aminocyclohexyl)benzo[d]thiazole-2-carboxamide]	> 100 µM
CC(NC(=O)c1ccc2cc[nH]c2c1)C1CCN(C(=O)[C@H](C)N)CC1 (stereo partly drawn) [compound 368, N-(1-(1-(L-alanyl)piperidin-4-yl)ethyl)-1H-indole-6-carboxamide]	12.3 µM
COc1cccc2[nH]cc(C(=O)NC(C)C3CCN(C(=O)[C@H](C)N)CC3)c12 (stereo partly drawn) [compound 370, N-(1-(1-(L-alanyl)piperidin-4-yl)ethyl)-4-methoxy-1H-indole-3-carboxamide]	> 100 µM
COc1cccc2[nH]cc(C(=O)N[C@H]3CC[C@H](NC(=O)CCN)CC3)c12 [compound 371, N-((1r,4r)-4-(3-aminopropanamido)cyclohexyl)-4-methoxy-1H-indole-3-carboxamide]	> 100 µM
COc1cccc2[nH]cc(C(=O)N[C@H]3CC[C@H](N)CC3)c12 [compound 372, N-((1r,4r)-4-aminocyclohexyl)-4-methoxy-1H-indole-3-carboxamide]	> 100 µM
NCCC(=O)N[C@H]1CC[C@H](NC(=O)c2cnc3ccccc3n2)CC1 [compound 373, N-((1r,4r)-4-(3-aminopropanamido)cyclohexyl)quinoxaline-2-carboxamide]	> 100 µM
NCCC(=O)N[C@H]1CC[C@H](NC(=O)c2nc3ccccc3[nH]2)CC1 [compound 374, N-((1r,4r)-4-(3-aminopropanamido)cyclohexyl)-1H-benzo[d]imidazole-2-carboxamide]	86.6 µM
NCCC(=O)N[C@H]1CC[C@H](NC(=O)CCCn2ccnc2)CC1 [compound 375, N-((1r,4r)-4-(3-aminopropanamido)cyclohexyl)-4-(1H-imidazol-1-yl)butanamide]	> 100 µM

Structure (SMILES)	IC50
NCCC(=O)N[C@H]1CC[C@H](NC(=O)c2ccnc(O)c2)CC1 [compound 376, N-((1r,4r)-4-(3-aminopropanamido)cyclohexyl)-2-hydroxyisonicotinamide]	> 100 µM
CC(NC(=O)c1ccc(O)nc1)C1CCN(C(=O)[C@H](C)N)CC1 (stereo partly drawn) [compound 378, N-(1-(1-(L-alanyl)piperidin-4-yl)ethyl)-6-hydroxynicotinamide]	> 100 µM
Cc1cnccc1C(=O)N[C@H]1CC[C@H](NC(=O)CCN)CC1 [compound 379, N-((1r,4r)-4-(3-aminopropanamido)cyclohexyl)-3-methylisonicotinamide]	> 100 µM
Cc1cnccc1C(=O)N[C@H]1CC[C@H](N)CC1 [compound 380, N-((1r,4r)-4-aminocyclohexyl)-3-methylisonicotinamide]	> 100 µM
Cc1ccncc1C(=O)N[C@H]1CC[C@H](NC(=O)CCN)CC1 [compound 381, N-((1r,4r)-4-(3-aminopropanamido)cyclohexyl)-4-methylnicotinamide]	> 100 µM
Cc1ccc(C(=O)N[C@H]2CC[C@H](NC(=O)CCN)CC2)cn1 [compound 382, N-((1r,4r)-4-(3-aminopropanamido)cyclohexyl)-6-methylnicotinamide]	> 100 µM
COc1cnc(C(=O)N[C@H]2CC[C@H](NC(=O)CCN)CC2)cn1 [compound 383, N-((1r,4r)-4-(3-aminopropanamido)cyclohexyl)-5-methoxypyrazine-2-carboxamide]	> 100 µM
COc1cnc(C(=O)N[C@H]2CC[C@H](N)CC2)cn1 [compound 384, N-((1r,4r)-4-aminocyclohexyl)-5-methoxypyrazine-2-carboxamide]	> 100 µM
NCCC(=O)N[C@H]1CC[C@H](NC(=O)c2cccc(N)n2)CC1 [compound 385, 6-amino-N-((1r,4r)-4-(3-aminopropanamido)cyclohexyl)picolinamide]	> 100 µM
Nc1cccc(C(=O)N[C@H]2CC[C@H](N)CC2)n1 [compound 386, 6-amino-N-((1r,4r)-4-aminocyclohexyl)picolinamide]	> 100 µM
CC(NC(=O)c1ccc(N)nc1)C1CCN(C(=O)[C@H](C)N)CC1 (stereo partly drawn) [compound 387, N-(1-(1-(L-alanyl)piperidin-4-yl)ethyl)-6-aminonicotinamide]	> 100 µM
NCCC(=O)N[C@H]1CC[C@H](NC(=O)c2ccc(N)nc2)CC1 [compound 388, 6-amino-N-((1r,4r)-4-(3-aminopropanamido)cyclohexyl)nicotinamide]	> 100 µM
N[C@H]1CC[C@H](NC(=O)c2cccc(F)n2)CC1 [compound 389, N-((1r,4r)-4-aminocyclohexyl)-6-fluoropicolinamide]	> 100 µM
NCCC(=O)N[C@H]1CC[C@H](NC(=O)c2ccncc2F)CC1 [compound 390, N-((1r,4r)-4-(3-aminopropanamido)cyclohexyl)-3-fluoroisonicotinamide]	> 100 µM
NCCC(=O)N[C@H]1CC[C@H](NC(=O)c2c[nH]c3ccccc23)CC1 [compound 391, N-((1r,4r)-4-(3-aminopropanamido)cyclohexyl)-1H-indole-3-carboxamide]	> 100 µM
Cc1cc(C(=O)NC(C)C2CCN(C(=O)[C@H](C)N)CC2)ccn1 (stereo partly drawn) [compound 392, N-(1-(1-(L-alanyl)piperidin-4-yl)ethyl)-2-methylisonicotinamide]	> 100 µM
Cc1cc(C(=O)N[C@H]2CC[C@H](NC(=O)CCN)CC2)ccn1 [compound 393, N-((1r,4r)-4-(3-aminopropanamido)cyclohexyl)-2-methylisonicotinamide]	> 100 µM
Cc1cc(C(=O)N[C@H]2CC[C@H](N)CC2)ccn1 [compound 394, N-((1r,4r)-4-aminocyclohexyl)-2-methylisonicotinamide]	> 100 µM
CC(NC(=O)c1nc2ccccc2s1)C1CCN(C(=O)[C@H](C)N)CC1 (stereo partly drawn) [compound 395, N-(1-(1-(L-alanyl)piperidin-4-yl)ethyl)benzo[d]thiazole-2-carboxamide]	> 100 µM
Cc1cnc(C(=O)NC(C)C2CCN(C(=O)[C@H](C)N)CC2)s1 (stereo partly drawn) [compound 396, N-(1-(1-(L-alanyl)piperidin-4-yl)ethyl)-5-methylthiazole-2-carboxamide]	10.6 µM
Cc1cnc(C(=O)N[C@H]2CC[C@H](NC(=O)CCN)CC2)s1 [compound 397, N-((1r,4r)-4-(3-aminopropanamido)cyclohexyl)-5-methylthiazole-2-carboxamide]	27.4 µM
Cc1cnc(C(=O)N[C@H]2CC[C@H](N)CC2)s1 [compound 398, N-((1r,4r)-4-aminocyclohexyl)-5-methylthiazole-2-carboxamide]	> 100 µM
CC(NC(=O)c1cccc2c1CC(=O)N2)C1CCN(C(=O)[C@H](C)N)CC1 (stereo partly drawn) [compound 399, N-(1-(1-(L-alanyl)piperidin-4-yl)ethyl)-2-oxoindoline-4-carboxamide]	> 100 µM
